US8575103B2, “Peptides and methods for inhibiting G alpha protein signaling” (The Board of Trustees of the University of Illinois, priority 2009, dated 2013)
“Also recorded” adds a separate entry of the source. Read-outs that look alike come from different tables or passages of the source. Where no end group is shown, it is not given here. The star is where a group is joined. Myristoyl = CCCCCCCCCCCCCC(=O)*

Key:
CD1 mice = experiment: bleeding time in mice after intravenous administration; assay type: in vivo; settings: 100 μl of 3.7 mM intravenously via tail vein, tail cut five minutes after administration
Procedure: Briefly, CD1 mice (25 grams) were anesthetized with sodium pentobarbital, and either 100 μl of vehicle or 100 μl of a vehicle solution containing 3.7 mM of each peptide or aspirin was administered intravenously via the tail vein. Five minutes following administration, the tail was cut 0.5 cm from the tip and immersed in PBS buffer (pH 7.4; 37EC). Cessation of bleeding was observed visually and the total bleeding time was recorded.

α11bβ3 integrin [1] = molecular target: T1, α11bβ3 integrin (Homo sapiens, UniProt P05106+P08514+Q9Y490); experiment: peptide affinity column with solubilized human platelets, western blot for α11bβ3; assay type: binding; settings: immunoblot, bands at 130 kD and 115 kD
T1 construct: detected two bands, one at 130 kD and the other at 115 kD in solubilized human platelets; endogenous in cells; host or cells: solubilized human platelets
From the text: (§1) On this basis, subsequent experiments examined whether G13SR2pep peptide (SEQ ID NO:5) does indeed directly interact with α11bβ3 and/or one of its associated proteins in human platelets. In this respect, platelet α11bβ3 integrin is known to exist in a complex with two cytoplasmic proteins, i.e., talin and kindlin-3 (Tadokoro, et al. (2003) Science 302:103-6; Moser, et al. (2008) Nature Med. 14:325-30). To determine whether G13SR2pep, (SEQ ID NO:5) interacts with any of these proteins (or with the entire α11bβ3, talin, kindlin-3 complex), peptide affinity columns using G13SR2pep (SEQ ID NO:5) were employed. The affinity purified protein(s) from solubilized human platelets that specifically bound to the G13SR2pep peptide were eluted, and analyzed by western blot for α11bβ3 integrin, talin and kindlin-3. In similar experiments, the eluates from a peptide column using the G13SR2-Random Peptide (SEQ ID NO:9) were also analyzed. Immunoblot analysis with the α11bβ3 antibodies (Abcam) detected two bands, one at 130 kD and the other at 115 kD in solubilized human platelets as well as in the elution fraction obtained from the G13SR2pep (SEQ ID NO:5) affinity column. […] This was supported by similar experiments using talin antibodies and the kindlin 3 antibody (Abcam).

talin = molecular target: T2, talin (Homo sapiens, UniProt Q9Y490); experiment: peptide affinity column with solubilized human platelets, western blot for talin; assay type: binding; settings: solubilized human platelets, immunoblot; whole talin (220 kD), talin head domain (47 kD)
T2 construct: also purified whole talin (220 kD), the talin head domain (47 kD) and kindlin 3 (72 kD); endogenous in cells; host or cells: solubilized human platelets
T2 sequence (Q9Y490 1-433): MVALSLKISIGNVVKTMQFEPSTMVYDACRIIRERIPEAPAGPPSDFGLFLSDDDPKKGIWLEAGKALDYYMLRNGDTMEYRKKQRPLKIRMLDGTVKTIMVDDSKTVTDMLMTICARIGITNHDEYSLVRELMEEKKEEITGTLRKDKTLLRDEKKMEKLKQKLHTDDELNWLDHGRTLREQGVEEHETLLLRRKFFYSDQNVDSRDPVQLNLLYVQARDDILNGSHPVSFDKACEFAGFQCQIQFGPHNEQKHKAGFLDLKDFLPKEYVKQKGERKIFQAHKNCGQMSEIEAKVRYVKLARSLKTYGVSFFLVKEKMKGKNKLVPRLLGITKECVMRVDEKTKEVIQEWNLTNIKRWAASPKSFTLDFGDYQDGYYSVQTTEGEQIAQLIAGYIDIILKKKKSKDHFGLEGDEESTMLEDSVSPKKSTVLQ
From the text: as §1
Thus, the binding of G13SR2pep (SEQ ID NO:5) to the talin head domain serves as the basis for the ability of G13SR2pep to inhibit α11bβ3 integrin activation and platelet aggregation. As such, peptides or specific compounds fashioned to mimic or modify the switch region interaction with talin, α11bβ3 integrin or other α11bβ3 integrin-associated proteins would have profound effects on thrombosis and other integrin-linked disease processes.

kindlin-3 = molecular target: T3, kindlin-3 (Homo sapiens, UniProt Q86UX7); experiment: peptide affinity column with solubilized human platelets, western blot for kindlin-3; assay type: binding; settings: immunoblot, kindlin 3 (72 kD)
T3 construct: also purified whole talin (220 kD), the talin head domain (47 kD) and kindlin 3 (72 kD); endogenous in cells; host or cells: solubilized human platelets
From the text: as §1

human platelets [2] = experiment: human platelet aggregation in platelet rich plasma (PRP); assay type: cell-based
human platelets [3] = experiment: as above; assay type: cell-based; settings: for effect on human platelet aggregation induced by U46619 (TP): 0.5 μM U46619
Procedure: Trace (a) is control data from human platelet rich plasma (PRP) incubated with 500 μM of the Random Peptide (Myr-Leu-Ile-Arg-Pro-Tyr-Leu-His-Arg-Ala-Thr-Lys-Glu-Gly; SEQ ID NO:6), prior to stimulation with 15 μM of the PAR1 receptor agonist TRAP1. Trace (b) depicts data wherein PRP was treated with 30 μM Myr-G13SR1pep-2 prior to stimulation with 15 μM TRAP1. Trace (c) depicts data wherein PRP was treated with 50 μM Myr-G13SR1pep-2 prior to stimulation with 15 μM TRAP1. Trace (d) is control data showing PRP treated with 500 μM of the Random Peptide (SEQ ID NO:6) prior to stimulation with the 0.5 μM thromboxane receptor agonist U46619. Trace (e) depicts data wherein PRP was treated with 500 μM Myr-G13SR1pep-2 prior to stimulation with 0.5 μM U46619. Trace (f) is control data showing PRP treated with 500 μM of the Random Peptide (SEQ ID NO:6) prior to stimulation with 10 μM of the P2Y1/P2Y12 receptor agonist ADP. […] Trace (h) depicts control data showing PRP treated with 500 μM of the Random Peptide (SEQ ID NO:6) prior to stimulation with 40 μM of the PAR4 receptor agonist TRAP4. Trace (i) depicts data wherein PRP was treated with 500 μM Myr-G13SR1pep-2 prior to stimulation with 40 μM TRAP4.
Trace (a) depicts control data showing PRP treated with 500 μM of the Random Peptide (Myr-Gln-Arg-Ile-Arg-Phe-Cys-Ser-Glu-Gly-Val-Glu-Lys-Gly-His-Trp-Asn-Arg; SEQ ID NO:7) prior to stimulation with 15 μM of the PAR1 receptor agonist TRAP1. Trace (b) depicts data wherein PRP was treated with 500 μM Myr-GqSR2pep prior to stimulation with 15 μM TRAP1. Trace (c) is control data showing PRP treated with 500 μM Random Peptide (SEQ ID NO:7) prior to stimulation with the 0.5 μM of the thromboxane receptor agonist U46619. Trace (d) depicts data wherein PRP was treated with 50 μM Myr-GqSR2pep, prior to stimulation with 0.5 μM U46619. Trace (e) depicts data wherein PRP was treated with 150 μM Myr-GqSR2pep prior to stimulation with 0.5 μM U46619. Trace (f) is control data showing PRP treated with 500 μM Random Peptide (SEQ ID NO:7) prior to stimulation with 10 μM ADP. Trace (g) depicts data wherein PRP was treated with 50 μM Myr-GqSR2pep prior to stimulation with 10 μM ADP. Trace (h) depicts data wherein PRP was treated with 150 μM Myr-GqSR2pep prior to stimulation with 10 μM ADP. Trace (i) is control data showing PRP treated with 500 μM Random Peptide (SEQ ID NO:7) prior to stimulation with 40 μM of the PAR4 receptor agonist TRAP4. Trace (j) depicts data wherein PRP was treated with 150 μM Myr-GqSR2pep prior to stimulation with 40 μM of TRAP4.
Trace (a) is control data showing PRP treated with 500 μM of the Random Peptide (Myr-Gly-Ile-His-Glu-Trp-Glu-Val-Gly-Ser-Phe-Lys-Gly-Cys-Gln-Lys-Arg-Arg; SEQ ID NO:8) prior to stimulation with 15 μM of the PAR1 receptor agonist TRAP1. Trace (b) depicts data wherein PRP was treated with 500 μM Myr-GiSR2pep prior to stimulation with 15 μM TRAP1. Trace (c) is control data showing PRP treated with 500 μM Random Peptide (SEQ ID NO:8) prior to stimulation with the 0.5 μM of the thromboxane receptor agonist U46619. Trace (d) depicts data wherein PRP was treated with 500 μM Myr-GiSR2pep prior to stimulation with 0.5 μM U46619. Trace (e) is control data showing PRP treated with 500 μM Random Peptide (SEQ ID NO:8) prior to stimulation with 10 μM ADP. Trace (f) depicts data wherein PRP was treated with 150 μM Myr-GiSR2pep, prior to stimulation with 10 μM ADP. Trace (g) depicts data wherein PRP was treated with 500 μM Myr-GiSR2pep prior to stimulation with 10 μM ADP. Trace (h) is control data showing PRP treated with 500 μM Random Peptide prior (SEQ ID NO:8) to stimulation with 40 μM of the PAR4 receptor agonist TRAP4. Trace (i) depicts data wherein PRP was treated with 500 μM Myr-GiSR2pep prior to stimulation with 40 μM of TRAP4 […]

human platelets [4] = settings: Huang, et al. (2007) J. Biol. Chem. 282:10210-10222; cited from earlier work
α11bβ3 integrin [5] = experiment: platelet α11bβ3 integrin activation, FITC-PAC1 antibody binding by flow cytometry; assay type: cell-based, human; settings: single substitution Arg232 to Ala versus parent G13SR2pep
Procedure: The platelet count in human PRP was adjusted to 1×10^6 platelets/ml. The platelets were then labeled with FITC-conjugated PAC1 antibody against activated α11bβ3 integrin, and the samples were analyzed by flow cytometry in a Beckman Coulter CyAn II Flow Cytometer. Trace (a) depicts resting platelets labeled with FITC-PAC-1 antibody. Trace (b) depicts platelets stimulated with 0.5 μM U46619 and labeled with FITC-PAC1 antibody. Trace (c) depicts platelets incubated with 500 μM of the Random Peptide (SEQ ID NO:9), followed by 0.5 μM U46619 stimulation and FITC-PAC1 labeling. Trace (d) depicts platelets incubated with 150 μM of the G13SR2pep, followed by 0.5 μM U46619 stimulation and FITC-PAC1 labeling.
Subsequent experiments examined the effect of G13SR2pep, (SEQ ID NO:5) on human platelet α11bβ3 integrin activation as measured by FITC-PAC-1 antibody binding.

[6] = PRP, 500 μM peptide, 15 μM TRAP1
[7] = PRP, 500 μM peptide, 40 μM TRAP4

CC(=O)Oc1ccccc1C(=O)O [ASA, aspirin, reference compound]
bleeding time (CD1 mice): increase

GFDEWEVSFKGCQRRSR [Random Peptide (SEQ ID NO:9), random peptide control for G13SR2pep, reference compound]
α11bβ3 in affinity column eluate (interaction with peptide) (α11bβ3 integrin [1]): did not reveal the presence
talin in affinity column eluate (talin): did not reveal the presence
kindlin 3 in affinity column eluate (kindlin-3): did not reveal the presence
inhibition of human platelet aggregation stimulated by U46619 (human platelets [2]; PRP, 75-150 μM G13SR2pep (Random Peptide 500 μM), 0.5 μM U46619): without effect
inhibition of human platelet aggregation stimulated by ADP (human platelets [2]; PRP, 75-150 μM G13SR2pep (Random Peptide 500 μM), 10 μM ADP): without effect
inhibition of human platelet aggregation stimulated by TRAP1 (human platelets [2]; PRP, 75-150 μM G13SR2pep (Random Peptide 500 μM), 15 μM TRAP1): without effect
inhibition of human platelet aggregation stimulated by TRAP4 (human platelets [2]; PRP, 75-150 μM G13SR2pep (Random Peptide 500 μM), 50 μM TRAP4): without effect

Myr-Leu-Leu-Ala-Arg-Arg-Pro-Thr-Ala-Gly-Ile-His-Glu-Tyr (Myristoyl-LLARRPTAGIHEY) [Myr-G13SR1pep-2, myristoylated Gα13 switch region 1 peptide, Lys changed to Ala]
effect on human platelet aggregation induced by U46619 (TP) (human platelets [3]; PRP, 500 μM peptide): no measurable effect
effect on human platelet aggregation induced by ADP (human platelets [3]; PRP, 500 μM peptide, 10 μM ADP): no measurable effect
effect on human platelet aggregation induced by TRAP1 (PAR1) (human platelets [3]; [6]): no measurable effect
effect on human platelet aggregation induced by TRAP4 (PAR4) (human platelets [3]; [7]): no measurable effect
inhibition of PAR1-induced human platelet aggregation (human platelets [3]; PRP, 30-50 μM peptide, 15 μM TRAP1): progressive inhibition; also recorded: blocked
potency relative to the original peptide (Myr-G13SR1pep) for inhibition of PAR1-induced human platelet aggregation (human platelets [3]; human PRP): ten-fold increased potency
bleeding time (CD1 mice): increased bleeding times; also recorded: substantially increases

Myr-Leu-Leu-Ala-Arg-Arg-Pro-Thr-Lys-Gly-Ile-His-Glu-Tyr (Myristoyl-LLARRPTKGIHEY) [Myr-G13SR1pep, original permeable peptide representing SR1 of the Gα13 subunit (Huang, et al. 2007)]
inhibition of PAR1-induced human platelet aggregation (human platelets [4]): selectively and dose-dependently inhibited

Myr-Val-Gly-Gly-Gln-Arg-Ser-Glu-Arg-Arg-Lys-Trp-Ile-His-Cys-Phe-Glu-Asn (Myristoyl-VGGQRSERRKWIHCFEN) [Myr-GqSR2pep, myristoylated Gαq switch region 2 peptide]
effect on human platelet aggregation induced by TRAP1 (PAR1) (human platelets [3]; [6]): ineffective
inhibition of human platelet aggregation induced by PAR4 receptors (human platelets [3]; PRP, 50-150 μM peptide, 40 μM TRAP4): dose-dependent inhibition
inhibition of human platelet aggregation induced by TP receptors (human platelets [2]; PRP, 50-150 μM peptide, 0.5 μM U46619): dose-dependent inhibition
inhibition of human platelet aggregation induced by ADP receptors (human platelets [2]; PRP, 50-150 μM peptide, 10 μM ADP): dose-dependent inhibition

Myr-Val-Gly-Gly-Gln-Arg-Ser-Glu-Arg-Lys-Lys-Trp-Ile-His-Cys-Phe-Glu-Gly (Myristoyl-VGGQRSERKKWIHCFEG) [Myr-Gi SR2pep, myristoylated Gαi switch region 2 peptide]
effect on human platelet aggregation induced by U46619 (TP) (human platelets [3]; PRP, 500 μM peptide): without affecting
effect on human platelet aggregation induced by TRAP1 (PAR1) (human platelets [3]; [6]): without affecting
effect on human platelet aggregation induced by TRAP4 (PAR4) (human platelets [3]; [7]): without affecting
inhibition of ADP-induced aggregation (human platelets [3]; PRP, 150-500 μM peptide, 10 μM ADP): dose-dependent (150-500 μM) inhibition

RSERKRWFECFD [G13SR2pep-truncated, truncated version of the G13 Switch Region 2 peptide]
inhibition of human platelet aggregation compared with full length G13SR2pep (human platelets [2]; PRP, 150 μM peptide, 15 μM TRAP1 or 0.5 μM U46619 (FIG. 5)): inhibited human platelet aggregation with the same potency

VGGQRSERKAWFECFDS [G13SR2mutant pep, G13SR2pep with single substitution at amino acid 232 from Arg to Ala, reference compound]
ability to block integrin activation (α11bβ3 integrin [5]): completely eliminated the ability
ability to block platelet activation (human platelets [2]; single substitution Arg232 to Ala versus parent G13SR2pep): completely eliminated the ability
